Reference: the NIST ThermoML archive (doi:10.1021/je400056z)

Assay: xn = mol fraction of the nth substance listed
Details: Liquid, Vibrating tube method

CCCCCCC [heptane] + O=C=O
Details	mass density [kg/m3]
332.8 K, 25003 kPa, x2 = 0.0218	677.55
332.83 K, 6993 kPa, x2 = 0.5085	682.63
332.83 K, 8019 kPa, x2 = 0.5085	685.45
332.83 K, 9012 kPa, x2 = 0.5085	688
332.83 K, 10004 kPa, x2 = 0.5085	690.4
332.83 K, 11006 kPa, x2 = 0.5085	692.81
332.83 K, 12005 kPa, x2 = 0.5085	695.15
332.83 K, 13003 kPa, x2 = 0.5085	697.36
332.83 K, 13999 kPa, x2 = 0.5085	699.53
332.83 K, 15005 kPa, x2 = 0.5085	701.72
332.83 K, 16003 kPa, x2 = 0.5085	703.82
332.83 K, 17000 kPa, x2 = 0.5085	706.1
332.83 K, 18006 kPa, x2 = 0.5085	708.26
332.83 K, 19000 kPa, x2 = 0.5085	710.51
332.83 K, 20000 kPa, x2 = 0.5085	712.6
332.83 K, 20991 kPa, x2 = 0.5085	714.75
332.83 K, 22000 kPa, x2 = 0.5085	716.83
332.83 K, 23003 kPa, x2 = 0.5085	718.86
332.83 K, 24000 kPa, x2 = 0.5085	720.81
332.83 K, 25002 kPa, x2 = 0.5085	722.78
342.59 K, 5015 kPa, x2 = 0.3148	660.43
342.59 K, 6006 kPa, x2 = 0.3148	662.35
342.59 K, 7008 kPa, x2 = 0.3148	664.12
342.59 K, 8003 kPa, x2 = 0.3148	665.96
342.59 K, 9023 kPa, x2 = 0.3148	667.75
342.59 K, 10000 kPa, x2 = 0.3148	669.58
342.59 K, 11004 kPa, x2 = 0.3148	671.39
342.59 K, 11999 kPa, x2 = 0.7514	668.27
342.59 K, 12012 kPa, x2 = 0.3148	673.16
342.59 K, 13009 kPa, x2 = 0.3148	674.92
342.59 K, 13078 kPa, x2 = 0.7514	677.39
342.59 K, 14002 kPa, x2 = 0.7514	684.02
342.59 K, 14006 kPa, x2 = 0.3148	676.58
342.59 K, 14980 kPa, x2 = 0.7514	690.44
342.59 K, 15007 kPa, x2 = 0.3148	678.19
342.59 K, 16000 kPa, x2 = 0.3148	679.78
342.59 K, 16000 kPa, x2 = 0.7514	696.41
342.59 K, 17006 kPa, x2 = 0.7514	701.98
342.59 K, 17008 kPa, x2 = 0.3148	681.37
342.59 K, 18003 kPa, x2 = 0.7514	707.17
342.59 K, 18004 kPa, x2 = 0.3148	682.88
342.59 K, 18988 kPa, x2 = 0.7514	711.38
342.59 K, 19000 kPa, x2 = 0.3148	684.38
342.59 K, 20000 kPa, x2 = 0.3148	685.86
342.59 K, 20006 kPa, x2 = 0.7514	716.85
342.59 K, 21010 kPa, x2 = 0.7514	721.31
342.59 K, 21018 kPa, x2 = 0.3148	687.3
342.59 K, 22004 kPa, x2 = 0.7514	725.37
342.59 K, 22006 kPa, x2 = 0.3148	688.68
342.59 K, 23009 kPa, x2 = 0.7514	729.36
342.59 K, 23014 kPa, x2 = 0.3148	690.13
342.59 K, 24006 kPa, x2 = 0.7514	733.15
342.59 K, 24010 kPa, x2 = 0.3148	691.48
342.59 K, 24951 kPa, x2 = 0.7514	736.71
342.59 K, 25016 kPa, x2 = 0.3148	692.87
342.68 K, 4004 kPa, x2 = 0.0218	646.95
342.68 K, 5003 kPa, x2 = 0.0218	648.26
342.68 K, 6004 kPa, x2 = 0.0218	649.55
342.68 K, 7009 kPa, x2 = 0.0218	650.86
342.68 K, 7996 kPa, x2 = 0.0218	652.09
342.68 K, 9017 kPa, x2 = 0.0218	653.32
342.68 K, 9997 kPa, x2 = 0.0218	654.54
342.68 K, 11003 kPa, x2 = 0.0218	655.71
342.68 K, 11998 kPa, x2 = 0.0218	656.85
342.68 K, 13010 kPa, x2 = 0.0218	657.99
342.68 K, 14002 kPa, x2 = 0.0218	659.11
342.68 K, 15008 kPa, x2 = 0.0218	660.22
342.68 K, 16006 kPa, x2 = 0.0218	661.28
342.68 K, 17003 kPa, x2 = 0.0218	662.36
342.68 K, 18003 kPa, x2 = 0.0218	663.38
342.68 K, 19002 kPa, x2 = 0.0218	664.4
342.68 K, 20005 kPa, x2 = 0.0218	665.4
342.68 K, 21007 kPa, x2 = 0.0218	666.43
342.68 K, 22003 kPa, x2 = 0.0218	667.43
342.68 K, 23010 kPa, x2 = 0.0218	668.42
342.68 K, 24005 kPa, x2 = 0.0218	669.41
342.68 K, 25003 kPa, x2 = 0.0218	670.37
342.71 K, 13106 kPa, x2 = 0.9496	500.65
342.71 K, 13985 kPa, x2 = 0.9496	541.93
342.71 K, 15012 kPa, x2 = 0.9496	579.95
342.71 K, 16000 kPa, x2 = 0.9496	609.5
342.71 K, 17009 kPa, x2 = 0.9496	634.13
342.71 K, 17984 kPa, x2 = 0.9496	654.42
342.71 K, 18996 kPa, x2 = 0.9496	672.31
342.71 K, 19994 kPa, x2 = 0.9496	687.85
342.71 K, 20999 kPa, x2 = 0.9496	701.79
342.71 K, 22001 kPa, x2 = 0.9496	714.18
342.71 K, 23009 kPa, x2 = 0.9496	725.67
342.71 K, 23985 kPa, x2 = 0.9496	735.74
342.71 K, 24518 kPa, x2 = 0.9496	740.87
342.73 K, 8002 kPa, x2 = 0.5085	670.04
342.73 K, 9011 kPa, x2 = 0.5085	673.34
342.73 K, 10003 kPa, x2 = 0.5085	676.47
342.73 K, 11006 kPa, x2 = 0.5085	679.46
342.73 K, 12005 kPa, x2 = 0.5085	682.3
342.73 K, 13011 kPa, x2 = 0.5085	685.03
342.73 K, 14001 kPa, x2 = 0.5085	687.62
342.73 K, 15001 kPa, x2 = 0.5085	690.13
342.73 K, 16006 kPa, x2 = 0.5085	692.58
342.73 K, 17007 kPa, x2 = 0.5085	694.92
342.73 K, 17999 kPa, x2 = 0.5085	697.18
342.73 K, 19004 kPa, x2 = 0.5085	699.4
342.73 K, 20003 kPa, x2 = 0.5085	701.54
342.73 K, 21007 kPa, x2 = 0.5085	703.69
342.73 K, 22001 kPa, x2 = 0.5085	705.73
342.73 K, 23008 kPa, x2 = 0.5085	707.8
342.73 K, 23998 kPa, x2 = 0.5085	709.81
342.73 K, 25003 kPa, x2 = 0.5085	711.79
351.97 K, 7006 kPa, x2 = 0.3148	652.07
351.97 K, 8006 kPa, x2 = 0.3148	654.34
351.97 K, 9004 kPa, x2 = 0.3148	656.45
351.97 K, 10010 kPa, x2 = 0.3148	658.6
351.97 K, 11002 kPa, x2 = 0.3148	660.62
351.97 K, 12003 kPa, x2 = 0.3148	662.65
351.97 K, 13003 kPa, x2 = 0.3148	664.59
351.97 K, 14001 kPa, x2 = 0.3148	666.48
351.97 K, 15008 kPa, x2 = 0.3148	668.29
351.97 K, 15998 kPa, x2 = 0.3148	670.12
351.97 K, 17018 kPa, x2 = 0.3148	671.87
351.97 K, 17988 kPa, x2 = 0.3148	673.47
351.97 K, 19003 kPa, x2 = 0.3148	675.21
351.97 K, 20004 kPa, x2 = 0.3148	676.85
351.97 K, 21004 kPa, x2 = 0.3148	678.45
351.97 K, 22002 kPa, x2 = 0.3148	680.02
351.97 K, 22992 kPa, x2 = 0.3148	681.54
351.97 K, 23999 kPa, x2 = 0.3148	683.05
351.97 K, 25008 kPa, x2 = 0.3148	684.53
352.3 K, 12013 kPa, x2 = 0.7514	641.2
352.3 K, 13001 kPa, x2 = 0.7514	649.87
352.3 K, 14004 kPa, x2 = 0.7514	657.71
352.3 K, 15036 kPa, x2 = 0.7514	665.3
352.3 K, 16003 kPa, x2 = 0.7514	671.66
352.3 K, 17017 kPa, x2 = 0.7514	677.97
352.3 K, 18016 kPa, x2 = 0.7514	683.63
352.3 K, 18998 kPa, x2 = 0.7514	689.01
